Legend:
engineered skin tissues = assay: Doxorubicin-induced toxicity: skin functional assays; assay type: cell-based, human; conditions: 30 μM Dox, both Isolated and InterOrgan cultures
Protocol: Skin functional assays: For drug-induced toxicity studies, electrical current was run through the tissues by placing electrodes on either side of the skin tissue and the change in resistance was subsequently measured and read as a function of the barrier. All tissues were analyzed using the same electrode holder setup to standardize the positions of electrodes with respect to the tissue. To analyze the transport of molecules through the skin barrier, Fluorescein (FITC, ThermoFisher, D3306) powder was added to the epidermis of skin tissues. After 3 hrs, 100 μl of supernatant from the dermal region below the skin tissue was sampled and assayed on a plate reader (BioTex SynergyHTX).

[1] = system: all tissues in the InterOrgan platform (heart, liver, bone, skin); assay: Doxorubicin-induced toxicity: cell viability, glucose consumption, mitochondrial activity of engineered tissues; assay type: cell-based, human; conditions: 30 μM Dox, 72 hours
Protocol: Metabolic Assays: Glucose, lactate, glutamate and glutamine were measured in parallel using the bioluminescent Glucose-Glo™ (Promega, cat. no. J6021), Lactate-Glo™ (Promega, cat. No. J5021), Glutamine/Glutamate-Glo™ (Promega, cat. no. J8021) and Glutamate-Glo™ (Promega, cat. no. J7021) assays according to the manufacturer's protocols.

[2] = system: human engineered cardiac tissue; assay: Validation of engineered cardiac tissue by drugs with known cardiac effects (beat frequency); assay type: cell-based; conditions: doxorubicin 1 μM over 72 hours
Protocol: The cardiac tissue model was generated from iPS-derived cardiomyocytes and fibroblasts encapsulated in fibrin hydrogel, as in our previous studies. The tissue was formed between two elastic pillars causing cell elongation and alignment, and subjected to electrical stimulation to synchronously contract and work against the pillars.
Specifically, linsitinib was dissolved at a 10 mM concentration in DMSO (Corning) and mixed in with the respective cell medium at a […] concentration unless otherwise noted. Vehicle treatments involved just the addition of DMSO at identical volumes as a control. Tissues were randomly assigned to experimental groups. Medium was changed every day.
To measure the cardiac contractility online, we took contractility videos of the tissues that were analyzed using the native MATLAB code we previously developed. Tissue contractility was measured by tracking the change in tissue area as a function of time. […] Absolute differences in cell area from the baseline frame were then calculated to create a time course of cell area changes over time. The resulting time courses were analyzed using a native MATLAB (MATHWorks) automated peak finding algorithm to determine locations of maximum cell contractions in the time profiles. […] The rate of proarrhythmic events was calculated by the ratio of the number of proarrhythmic events over the total number of beats.

miRNAs in heart tissues = assay type: cell-based, human
Excerpt: We used the GeneChip™ miRNA 4.0 Array (ThermoFisher) to measure differential expression of miRNAs in heart tissues following Dox treatment.
Differential expressions of all other miRNAs were highly significant in the InterOrgan platform, based on Normalized Enrichment Scores (NES), showing activity consistent with published clinical results for 20 out of the 22 miRNAs (FIGS. 14A-14F).
miRNA was isolated using miRNeasy Mini Kit from (Qiagen, 217004). Samples were shipped on dry ice to Advanced BioMedical Laboratories and assayed using the miRNA 4.0 Genechip Array (ThermoFisher). Results were analyzed using the TAC 4.0 software (ThermoFisher). Additional Ingenuity Pathway Analysis was performed using the methodology described above.
To assess the activity of miRNAs, gene set enrichment analysis (GSEA) was performed of their targets, as determined by MultiMiR (release 3.11) and RBio-mirGS (update 0.2.12) biocoductor packages (in R) for genes that were differentially expressed after Dox treatment. Since miRNAs generally repress their targets, the sign of the normalized enrichment score was reversed to correctly report their change in activity. For instance, a positive target enrichment for miR-1273a's targets was reported as a negative NES (NES=−21.31) because it is consistent with its downregulation. […]

[3] = FITC absorption and diffusive transport in the integrated platform; assay type: physicochemical
Protocol: Fluorescein isothiocyanate (FITC, 10 mM in DMSO; Sigma Aldrich) was circulated for the integrated platform to determine potential hydrophobic small molecule absorption, given its physical and chemical properties. FITC was added at a concentration of 10 µM to 8 mL of 1:1 bone tumor/cardiac mixed media and introduced into the platform. The control was the FITC-containing media in a standard 24-multiwell plate (Corning). Aliquots from the reservoir, bone tumor, and cardiac tissue chambers were taken at 12, 24, 48 and 72 hours and measured for fluorescent signal using a spectrophotometer (Biotek).
Measurements of FITC concentrations were used to estimate the spread of linsitinib within the platform via diffusive circulating transport. Four independent platforms were filled with 8 mL of 1:1 mixed media each, after which 10 µM of FITC was injected into the reservoir. The platforms were connected to the peristaltic pumps run at 100 rpm to generate physiologically relevant fluid flow rate and shear stress. Aliquots were taken from the reservoir, bone and cardiac chambers at 0, 2, 4, 6, and 12 hours post injection, and assayed for fluorescence signal on a spectrophotometer (Biotek).

endothelial barrier = assay: Endothelial barrier permeability under flow shear (ECs and supporting MSCs on mesh inserts); assay type: cell-based, human
cardiac muscle = assay: Cardiac beat frequency after drug injection into the reservoir of the InterOrgan platform; assay type: cell-based, human; conditions: 10 μM into reservoir at t=0; assessed at 24 and 72 hours

## COc1cccc2c1C(=O)c1c(O)c3c(c(O)c1C2=O)C[C@@](O)(C(=O)CO)C[C@@H]3O[C@H]1C[C@H](N)[C@H](O)[C@H](C)O1 [doxorubicin]
Engineered skin tissues
  diffusional permeability of skin: increased
  electrical resistance of skin: decreased
[1]
  cell viability: significantly decreased
  glucose consumption: significantly decreased
  mitochondrial activity: significantly decreased
[2]
  beat frequency: initially increased, and then decreased following prolonged exposure
miRNAs in heart tissues
  miR-1273a fold change (FC): −30.6

## Fluorescein isothiocyanate [FITC]
[3]; 10 μM circulated for 72 hours, compared to multi-well plates
  absorption by the platform: without any measurable absorption
[3]; 10 μM injected into reservoir
  time to equilibrium across both models: approximately 6 hours
  time to uniform concentration in all areas of the platform: ≤ 12 h

## thrombin
Endothelial barrier
  barrier permeability in response to thrombin: physiologic increase in barrier permeability

## CNC[C@H](O)c1ccc(O)c(O)c1 [epinephrine]
Cardiac muscle
  beat rate of cardiac muscle: increased the beat rate in a time-dependent manner

## CN(CCOc1ccc(NS(C)(=O)=O)cc1)CCc1ccc(NS(C)(=O)=O)cc1 [dofetilide]
Cardiac muscle
  beat rate of cardiac muscle: decreased
